A melting point compilation (Tetko et al.; mined from patent text by program, amines drawn as free bases though some values may be those of a salt)

Row | Structure (SMILES) | melting point
1 | O=C(NCCN1CCC(O)(c2ccc(Cl)cc2)CC1)c1cccs1 | 153 °C
2 | NC(=O)c1ncn2c(-c3ccccc3)ccnc12 | 226 to 228 °C
3 | Cn1nnc(-c2cccnc2)n1 | 108 to 110 °C
4 | CC(C)(C)n1cc(-c2ccc(Oc3ccccc3)cc2)c2c(N)ncnc21 | 157 to 158 °C
5 | CCOCCn1c(NC2CCN(CC#N)CC2)nc2cccnc21 | 141 °C
6 | Cc1ccccc1C(=O)CN1C(=O)C(NC(=O)Nc2cccc(C(=O)NO)c2)CN(C(=O)C(C)(C)C)c2ccccc21 (stereo not given) | 192 to 196 °C
7 | CSc1sc(C(N)=O)c2c1-c1[nH]c(-c3ccccc3)nc1CC2 | 206 to 207 °C
8 | CCOC(=O)N1CCC(Nc2nc3ccccc3n2Cc2ccc(CO)o2)CC1 | 138 to 140 °C
9 | O=C(O)c1cn(Cc2cnsn2)c2c(F)c(F)c(F)cc2c1=O | 220 to 222 °C
10 | CN(C)c1ccc2nc(N)c(C#N)c(N=Cc3ccccc3)c2c1 | 265 °C
11 | Cn1ncc2c(=O)n3c(nc21)SC(c1ccccc1)C3 (stereo not given) | 191 °C
12 | CCCc1nsc(N=C(Cl)N(C)C)c1C#N | 108 to 109 °C
13 | CCCCCCCCCCCCCCCCCCOc1cc(OCc2ccc3ccccc3n2)cc(N(CC(=O)O)CC(=O)O)c1 | 172 to 174 °C
14 | CC1(C)CON(Cc2cc(N3C(=O)C4=C(CCCC4)C3=O)c(F)cc2Cl)C1=O | 136 to 138 °C
15 | CCn1nnc(-c2cccc(-c3ccnc4c(-c5cc(C)cc(C)c5)cnn34)c2)n1 | 65 °C
16 | OCC(Nc1nc(-c2ccc(Br)cc2)cs1)C(F)(F)F (stereo not given) | 133 to 134 °C
17 | CC(O)Cn1c(COC(N)=O)nc(C(C)C)c1Sc1cc(Cl)cc(Cl)c1 (stereo not given) | 82 °C
18 | COc1cccc(OC)c1/C=C/S(=O)(=O)CS(=O)(=O)/C=C/c1c(OC)cccc1OC | 118 to 120 °C
19 | CC1(C)N=C(c2ccccc2Cl)c2cc([N+](=O)[O-])cc(Cl)c2NC1=O | 121 °C
20 | CC(C)c1ccccc1NC(=O)c1ccccc1SSc1ccccc1C(=O)Nc1ccccc1C(C)C | 235 to 237 °C
21 | Cc1cc(=O)oc2cccc(OC(=S)N(C)C)c12 | 166 to 168 °C
22 | Cc1nnc(N2CCC(N3c4ccccc4N(C)S3(=O)=O)CC2)n1-c1ccc(Cl)cc1 | 210 to 212 °C
23 | CN(Cc1ccc(F)cc1)C1CCN(c2ccc(C#N)cc2)CC1 | 100 to 101 °C
24 | Cc1ccc(Br)c(S(C)(=O)=O)c1 | 110 to 114 °C
25 | O=C(O)C1CC(c2ccccc2)=NN1C(=O)CP(=O)(O)CCCCc1ccccc1 (single isomer, unassigned; (+)) | 166 to 169 °C

Row | Structure (SMILES) | melting point
26 | O=C(COc1ccc2ccccc2c1)N1CCCN(c2cc(N3CCCC3)nc(N3CCCC3)n2)CC1 | 103 to 110 °C
27 | C=CCOc1ccc(CC(NC(O)OC(C)(C)C)C(=O)NC(C(=O)NC(C=C)C(=O)OC)C(C)C)cc1 (stereo not given) | 104 to 106 °C
28 | C[C@@H](n1cnc2cc(F)ccc2c1=O)[C@](O)(Cn1cncn1)c1ccc(F)cc1F | 106 to 107 °C
29 | COCCN(CC1=CCC(N)(Oc2ccccc2)C=C1)C(=O)C(Cl)Cl (stereo not given) | 100 to 102 °C
30 | CN(C)NC1=C2N=c3cc(Cl)ccc3=C2Oc2ccccc2N1C | 196 to 197 °C
31 | NCCCCCCCCCCCCCCCCCCCC(=O)O | 172 to 174 °C
32 | CC(=O)NCC=C1CCc2c(Cl)cc3nn(C)cc3c21 | 177 to 178 °C
33 | Cc1ccc(N2CCCN(c3cc[nH]c(=S)c3C#N)CC2)cc1[N+](=O)[O-] | 277 to 278 °C
34 | Cc1ccc(Cl)c(-c2nn(C(C)(C)C(=O)N(C)C)cc2C)c1 | 106 to 108 °C
35 | C=CCc1cc(C(=O)O)ccc1O | 119 to 123 °C
36 | CCOC(=O)c1cncnc1Nc1ccccc1NC | 153 to 155 °C
37 | CCCCCCCCCCC(O)C(O)CN (stereo not given) | 98 to 100 °C
38 | COc1cc2cc3c(Cl)c(C#N)cnc3cc2cc1O | > 300 °C
39 | COc1cccc(CCc2c(CC(=O)NC(C)C)ccc(OC)c2OC)c1 | 138 to 140 °C
40 | CN(C)C1(c2ccccc2)CCC(CNC(=O)N2CCC(c3c[nH]c4ccc(F)cc34)CC2)CC1 (stereo not given) | 95 to 98 °C
41 | COc1ccccc1NC(=S)C1CCc2nc[nH]c2C1 (stereo not given) | 218 to 219 °C
42 | CS(=O)(=O)c1ccc(-c2cc(C(N)=O)nn2-c2ccc(C(=O)O)cc2)cc1 | 292 to 293 °C
43 | O=C(Nc1ccc(C(=O)c2ccccc2)cc1)c1ccc(-c2ccccc2)cc1 | 212 to 213 °C
44 | CCOC(=O)N1CCC(=C2c3cc(F)ccc3CCc3cccnc32)CC1 | 112 to 114 °C
45 | CNS(=O)(=O)Cc1cc(Br)c(NC(=O)C(F)(F)F)c(Br)c1 | 179 to 180 °C
46 | O=C(Oc1ccccc1)N1CCC(Sc2ccccc2F)CC1 | 58 to 60 °C
47 | CCCC(=O)c1cnc2c(OC)cccc2c1Nc1ccccc1COC | 128 to 130 °C
48 | CC(C)n1cnc2c(Nc3cccc(Cl)c3)nc(NCCN)nc21 | 55 to 56 °C
49 | NC(=O)c1nc(N)nc(N)c1-c1ccc(Cl)cc1Cl | 298 to 299 °C
50 | COc1ccc2c(c1)cc1cnc(Nc3ccc(N4CCOCC4)cc3OC)nn12 | 152 to 164 °C

Row | Structure (SMILES) | melting point
51 | O=C(O)CCC(=O)Nc1ccc(N2CCN(C3(c4ccc(-c5ccccc5)cc4)C(=O)NC(=O)NC3=O)CC2)cc1 | 246 to 247 °C
52 | CCCCc1nc(SC)c(C(=O)O)n1Cc1ccc(-c2ccccc2S(=O)(=O)NC(=O)NCCC)cc1 | 109 to 111 °C
53 | CC(=O)c1ccc(Nc2nc(N)c(C(=O)c3ccccc3[N+](=O)[O-])s2)cc1 | 264 to 265 °C
54 | CC12CCC3c4ccc(C(=O)O)cc4CCC3C1CCC2C(=O)c1ccc2c(c1)OCO2 (stereo not given) | 235 to 237 °C
55 | Cc1ncccc1CC(=NC#N)NC(NC(=O)Cc1ccc2ncccc2c1)C(C)(C)C (stereo not given) | 132 to 134 °C
56 | O=C(NCc1ccc(Cl)cc1)c1cn(-c2ccccc2)c2oc(CCl)cc2c1=O | 207 to 209 °C
57 | CCOC(=O)Cn1c(=O)c(-c2ccccc2Cl)cc2cnc(NC3C4CN(Cc5ccccc5)CC43)nc21 (stereo not given) | 186 to 188 °C
58 | O=[N+]([O-])c1cccc(/C=C/c2nc(C3CCCCCC3)cs2)c1 | 60 °C
59 | CCC(NC(=O)c1c(O)c(-c2ccccc2)nc2ccccc12)c1ccccc1 (single isomer, unassigned; (-)) | 122 to 125 °C
60 | COC1=CC(=O)C=CC1=O | 141 to 143 °C
61 | CC(=O)Oc1nc(-c2ccccc2)sc1-c1ccccc1 | 101 to 103 °C
62 | OC(CNC1CCc2ccccc2C1)COc1cccc2[nH]ccc12 (stereo not given) | 65 to 68 °C
63 | CO/C(=C\c1ccc2oc(Cc3nc(-c4ccccc4)oc3C)cc2c1)C(N)=O | 160 to 164 °C
64 | COc1cc(OC)c2c(=O)[nH]c(-c3ccc(CN4C(=O)CNC4=O)cc3)nc2c1 | 317 to 318 °C
65 | OCc1ccc(-c2c3ccccc3nn2Cc2ccco2)cc1 | 129 to 130 °C
66 | CC(=O)OC[C@H]1NC(=O)[C@@H](Cc2cn(C)c3ccccc23)NC1=O | 250 to 252 °C
67 | N/C(=C1\C(=O)c2cc(Cl)ccc2S1=O)c1ccccc1Cl (stereo not given) | 248 °C
68 | CC1=NS(=O)(=O)N(C(c2ccccc2)c2ccccc2)C=C1 | 174 to 177 °C
69 | O=C(NC(CS)Cc1ccccc1)N1CCCC1 (single isomer, unassigned; (+)) | 92 to 94 °C
70 | CC(=O)CCC(CC=O)C(C)(C)OC(C)=O (stereo not given) | 24 °C
71 | CCCCN1C(=O)c2c(ncn2C)N2CCN=C12 | 122 to 124 °C
72 | O=C1NC(=O)C(Cc2ccc(OCCn3ccc4cccnc43)cc2)S1 (stereo not given) | 200 to 202 °C
73 | CCCc1c2c(c(O)c3c(=O)cc(C(=O)OCC)oc13)CCCC2 | 136 to 138 °C
74 | CCOC(=O)c1c(O)cc(C(F)(F)Cl)nc1C(F)(F)F | 56.5 to 58.5 °C
75 | O=C1C(Cc2ccccc2)C(C(F)(F)F)Nc2ccccc2N1Cc1ccccc1 (stereo not given) | 150 to 151 °C

Row | Structure (SMILES) | melting point
76 | Nc1nc(NCCc2ccccc2OCc2ccccc2)nc2nc(-c3ccco3)nn12 | 151 to 153 °C
77 | NC(=O)CCCN1C(=O)c2ccccc2C1=O | 160 to 162 °C
78 | COc1cc(OCCBr)ccc1C=O | 78 to 79 °C
79 | C#C[C@@H](O)C1CCCCC1 | 56 to 58 °C
80 | O=C(NN1CCCCC1)c1ccc(N2CCN(C(=O)N3CCC(c4cn[nH]c4)C3)c3ccccc32)cc1 (stereo not given) | 251 °C
81 | CC1(C)Oc2ccccc2-n2cnc(-c3noc(C4CC4)n3)c21 | 155 to 156 °C
82 | O=C1CCc2cc(-c3cccc(Cl)c3)ccc21 | 113 °C
83 | CC1(C)C(=NO)C(=O)C2(C)CC(O)C12 (stereo not given) | 115 to 118 °C
84 | COc1nc(Cl)cc2nc(S(=O)(=O)Nc3nn(C)cc3Br)nn12 | 230 to 232 °C
85 | OC1CCCC(n2c(NC3CC3)nc3cc(Cl)c(Cl)cc32)C1O (stereo not given) | > 25 °C
86 | COc1cc(C)c(C(=O)CCCCCCCCCCCCCCCCCCCCC(=O)O)c(O)c1OC | 103 to 150 °C
87 | C=C(c1ccc(N(C(=O)c2c(I)cccc2C(N)=O)C(C)C)c(C)c1)C(F)(F)F | 201 to 203 °C
88 | COC(=O)c1nc(Nc2cccc(C(F)(F)F)c2)sc1-c1ccccc1 | 147 to 149 °C
89 | Nc1ccccc1NC(=O)c1ccc(NC(=O)Cc2ccccc2)cc1 | 232 to 237 °C
90 | CC(=O)Nc1cccc2c1C(=O)c1ccccc1C2=O | 221 °C
91 | O=C(CC(=O)c1ccc(C(=O)CC(=O)c2ccccc2)cc1)c1ccccc1 | 175 to 177 °C
92 | O=c1[nH]nc(Cl)cc1Br | 205 to 206 °C
93 | O=C(N[C@H](Cc1ccccc1)C(=O)O)OCc1ccc2[nH]c(-c3ccccc3)cc2c1 | 176 to 177 °C
94 | COc1ccc2nc(NC(=O)C(CC3CCCC3)c3ccc(S(=O)(=O)CC(C)=O)cc3)sc2n1 (stereo not given) | 67 to 71 °C
95 | COc1cc2[nH]nc(CN3CCN(c4ccccc4OC)CC3)c2cc1OC | 192 °C
96 | O=C(Nc1ccc(F)cc1F)NN1CC=CCC1 | 136 to 137 °C
97 | COP(=O)(CC(=C(c1ccc(F)cc1)c1ccc(F)cc1)c1nnnn1C)OC | 140 to 141 °C
98 | COc1ccc(C2c3cccc(O)c3C(=O)c3c(O)cccc32)c(OC)c1 | 152 °C
99 | Nc1ncc(Br)nc1-c1ccccc1Cl | 138 to 140 °C
100 | COC(=O)C(=Cc1ccc(F)c(Cl)c1)N=[N+]=[N-] | 72 to 74 °C
